Test results as given in PubChem BioAssay (NCI).
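Growth conditions: 96-well plates. Treatment: test compound, 48 hours, 5 concentrations. Analysis: linear interpolation between bracketing concentrations; unreached endpoints set to highest concentration. Definition used: TGI = concentration required for complete inhibition of growth.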

Experiments:
Experiment in all cases: NCI tumour cell line growth inhibition, 48 h
786-0 renal = tested on: 786-0 renal
BT-549 breast = tested on: BT-549 breast
EKVX NSCLC = tested on: EKVX NSCLC
HCT-116 colon = tested on: HCT-116 colon
NCI-H23 lung = tested on: NCI-H23 lung
NCI-H522 lung = tested on: NCI-H522 lung
OVCAR-4 ovarian = tested on: OVCAR-4 ovarian
OVCAR-8 ovarian = tested on: OVCAR-8 ovarian
SF-539 CNS = tested on: SF-539 CNS
SK-MEL-2 melanoma = tested on: SK-MEL-2 melanoma
SK-OV-3 ovarian = tested on: SK-OV-3 ovarian
SNB-19 CNS = tested on: SNB-19 CNS
U251 CNS = tested on: U251 CNS
UACC-62 melanoma = tested on: UACC-62 melanoma

Row | Compound | TGI (786-0 renal) | TGI (BT-549 breast) | TGI (EKVX NSCLC) | TGI (HCT-116 colon) | TGI (NCI-H23 lung) | TGI (NCI-H522 lung) | TGI (OVCAR-4 ovarian) | TGI (OVCAR-8 ovarian) | TGI (SF-539 CNS) | TGI (SK-MEL-2 melanoma) | TGI (SK-OV-3 ovarian) | TGI (SNB-19 CNS) | TGI (U251 CNS) | TGI (UACC-62 melanoma)
1 | COC(=O)C1CCC(=O)N1C(c1ccc2c(c1)OCO2)c1ccc2c(c1)OCO2 (stereo unspecified) | > 100 µM | > 100 µM | > 100 µM | > 100 µM | > 100 µM | > 100 µM | > 100 µM | > 100 µM | > 100 µM | > 100 µM | > 100 µM | > 100 µM | > 100 µM | > 100 µM
2 | CCc1n[nH]c(=O)n1NC(=O)/C=C\C(=O)O | > 100 µM | > 100 µM | > 100 µM | > 100 µM | > 100 µM | > 100 µM | > 100 µM | > 100 µM | > 100 µM | > 100 µM | > 100 µM | – | > 100 µM | > 100 µM
3 | CCn1cnc2c(NC(C)=O)ncnc21 | > 100 µM | > 100 µM | > 100 µM | > 100 µM | > 100 µM | > 100 µM | > 100 µM | > 100 µM | > 100 µM | > 100 µM | > 100 µM | > 100 µM | > 100 µM | > 100 µM
4 | Cc1ccc(C)c(NC(=O)C(Cc2c[nH]c3ccccc23)NC(=O)OCc2ccccc2)c1 (stereo unspecified) | 39.3 µM | 44.8 µM | 49 µM | 98.6 µM | 68.4 µM | 69.1 µM | 25 µM | > 100 µM | 21.5 µM | 45.9 µM | 50.1 µM | 27.6 µM | 35.1 µM | 59.7 µM
5 | O=C(O)C(F)(OC(F)(F)C(F)(OC(F)(F)C(F)(F)C(F)(F)F)C(F)(F)F)C(F)(F)F (stereo unspecified) | > 100 µM | > 100 µM | > 100 µM | > 100 µM | > 100 µM | > 100 µM | > 100 µM | > 100 µM | > 100 µM | > 100 µM | > 100 µM | > 100 µM | > 100 µM | > 100 µM
6 | CC(C)=CCC[C@H](C)[C@H]1CC[C@@H](C)c2cc(O)c(C)cc21 | 33.3 µM | 32.7 µM | 33.4 µM | 32.9 µM | 33 µM | 32.4 µM | 31.5 µM | 35.6 µM | 33.8 µM | 32.4 µM | 35.4 µM | 31.6 µM | 31.1 µM | 27.9 µM
7 | CCOC1SC(SC)=NN1C(=O)C(OC(C)=O)C(OC(C)=O)C(OC(C)=O)C(OC(C)=O)C(=O)N1N=C(SC)SC1OCC (stereo unspecified) | > 100 µM | > 100 µM | > 100 µM | > 100 µM | > 100 µM | > 100 µM | > 100 µM | > 100 µM | > 100 µM | > 100 µM | > 100 µM | > 100 µM | > 100 µM | > 100 µM
8 | COC(Cc1ccccc1)NC(C)=O (stereo unspecified) | > 100 µM | > 100 µM | > 100 µM | > 100 µM | > 100 µM | > 100 µM | > 100 µM | > 100 µM | > 100 µM | > 100 µM | > 100 µM | > 100 µM | > 100 µM | > 100 µM
9 | COc1cc(/C=C(\C#N)c2ccccn2)cc(Br)c1O | > 100 µM | > 100 µM | > 100 µM | > 100 µM | > 100 µM | > 100 µM | > 100 µM | > 100 µM | > 100 µM | > 100 µM | > 100 µM | > 100 µM | > 100 µM | > 100 µM
10 | COC(=O)[C@@H]1C[C@]2(CC=C(C)C)c3ccccc3N(S(=O)(=O)c3ccccc3)[C@@H]2N1C(=O)OC | > 100 µM | > 100 µM | 27.5 µM | > 100 µM | > 100 µM | 67.3 µM | > 100 µM | 86.5 µM | 86.3 µM | 34.3 µM | > 100 µM | > 100 µM | 41.8 µM | 51.8 µM
11 | N/N=C(\C(=O)Nc1ccc([N+](=O)[O-])cc1)C(C1=Nc2cc([N+](=O)[O-])ccc2NC1)[N+](=O)[O-] (stereo unspecified) | > 100 µM | > 100 µM | > 100 µM | > 100 µM | > 100 µM | > 100 µM | > 100 µM | > 100 µM | > 100 µM | > 100 µM | > 100 µM | > 100 µM | > 100 µM | > 100 µM
12 | COc1cc(OC)nc(Nc2c(C#N)c3nc4ccccc4n3c3ccccc23)n1 | 43.6 µM | 63 µM | > 100 µM | > 100 µM | > 100 µM | 64 µM | 78.7 µM | > 100 µM | 35.1 µM | 71.1 µM | > 100 µM | 86.2 µM | > 100 µM | > 100 µM
13 | O=C(/C(=C/c1cccs1)c1ccccc1)c1ccccc1 | > 100 µM | > 100 µM | > 100 µM | > 100 µM | > 100 µM | > 100 µM | > 100 µM | > 100 µM | 87.6 µM | > 100 µM | > 100 µM | > 100 µM | > 100 µM | > 100 µM
